Values joined by “and” are separate entries in the source; they are usually repeats but may differ in a detail not shown here. Equal entries are not always repeated.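 Each compound was tested at five concentrations against cells in 96-well plates for 48 hours. Abbreviation: GI50, concentration required for 50% inhibition of growth. At the TGI there is no net growth.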

The values that follow come from PubChem BioAssay (NCI).

Test systems include CCRF-CEM leukemia; EKVX NSCLC; HCT-15 colon; HOP-62 NSCLC; IGROV1 ovarian; OVCAR-4 ovarian; OVCAR-8 ovarian; PC-3 prostate; SK-MEL-28 melanoma; SK-MEL-5 melanoma.
Experiment in all cases: NCI tumour cell line growth inhibition, 48 h

Regarding `Nc1nc(=O)n(C2CC(O)C(CO)O2)cc1F` (configuration not stated), the GI50 is 0.00276 µM with CCRF-CEM leukemia; 28.4 µM with HCT-15 colon; over 100 µM with IGROV1 ovarian; 47.7 µM in the test with OVCAR-4 ovarian; 0.0594 µM with OVCAR-8 ovarian; 1.47 µM in the test on PC-3 prostate. In addition, the GI50 in the test on SK-MEL-5 melanoma is 0.228 µM. Moreover, the TGI in the test on CCRF-CEM leukemia, in the test with EKVX NSCLC, with HCT-15 colon, in the test on HOP-62 NSCLC, with IGROV1 ovarian and with OVCAR-4 ovarian was over 100 µM each time. In addition, the TGI in the test with OVCAR-8 ovarian, with PC-3 prostate, in the test with SK-MEL-28 melanoma and in the test on SK-MEL-5 melanoma was over 100 µM throughout.
Consider `Cc1ccc2c(c1)[n+](=O)c(C(=O)c1cccs1)c(C(F)(F)F)n2[O-]`, for which the GI50 in the test with CCRF-CEM leukemia is 1.72 µM; in the test on EKVX NSCLC it was 0.729 µM and 0.278 µM; in the test on HCT-15 colon it was 0.753 µM and 0.618 µM; in the test on HOP-62 NSCLC, 2.39 µM and 0.689 µM; in the test with OVCAR-8 ovarian it was 1.67 µM and 0.247 µM; with PC-3 prostate, 0.528 µM and 1.38 µM. Besides, the GI50 was 5.31 µM and 2.91 µM in the test on SK-MEL-28 melanoma; 0.648 µM and 0.177 µM in the test with SK-MEL-5 melanoma. The TGI in the test on CCRF-CEM leukemia was 50 µM; in the test on EKVX NSCLC, 1.87 µM and 0.746 µM; with HCT-15 colon, 7 µM and 14.8 µM; in the test on IGROV1 ovarian it was 0.332 µM; in the test with SK-MEL-28 melanoma it was 50 µM and 22.6 µM; in the test with SK-MEL-5 melanoma, 1.57 µM and 0.423 µM.
`Nc1n[n+]([O-])c2cc([N+](=O)[O-])ccc2[n+]1[O-]`: the TGI in the test on CCRF-CEM leukemia turned out to be 9.74 µM; in the test with HCT-15 colon it was 13.6 µM; with HOP-62 NSCLC it was 22.3 µM; in the test on IGROV1 ovarian, 13.2 µM; with OVCAR-4 ovarian it was 10.2 µM; with OVCAR-8 ovarian, 20.5 µM. Moreover, the TGI in the test on PC-3 prostate is over 100 µM; with SK-MEL-28 melanoma it was over 100 µM; with SK-MEL-5 melanoma, 20.6 µM.
Turning to `CCCCCC/C=C/C#CCCCCCCCC(=O)O`, the TGI in the test with CCRF-CEM leukemia, in the test on EKVX NSCLC, with HCT-15 colon, in the test with IGROV1 ovarian, in the test with OVCAR-4 ovarian and in the test with OVCAR-8 ovarian was over 100 µM each time. The TGI in the test on PC-3 prostate, with SK-MEL-28 melanoma and in the test with SK-MEL-5 melanoma was over 100 µM in each case.
For `O=C1Cc2c(-c3ccccc3)cc(-c3ccccc3)nc2-c2ccccc2N1`, the TGI in the test with CCRF-CEM leukemia was over 100 µM; in the test with EKVX NSCLC, 80.3 µM; with HCT-15 colon it was 4.4 µM; with HOP-62 NSCLC, 7.73 µM; with IGROV1 ovarian, 68.5 µM; in the test with OVCAR-8 ovarian, 21 µM. Besides, the values for the TGI in the test on PC-3 prostate, in the test with SK-MEL-28 melanoma and in the test on SK-MEL-5 melanoma were 42.9 µM, 83.7 µM and 7.58 µM, respectively.
With `Cc1cccc2c(C3=C(c4cn(C)c5ccccc45)C(=O)NC3=O)cn(C)c12`, the GI50 in the test on CCRF-CEM leukemia is over 18 µM; with HCT-15 colon it was 11.5 µM; in the test on HOP-62 NSCLC, 13.4 µM; in the test on IGROV1 ovarian, 25 µM; in the test on OVCAR-4 ovarian it was 6.64 µM; in the test on OVCAR-8 ovarian, 12.2 µM. Also, the GI50 with PC-3 prostate is 18.9 µM; with SK-MEL-28 melanoma it was 17.5 µM; in the test on SK-MEL-5 melanoma it was over 22.2 µM. Moreover, the TGI in the test with CCRF-CEM leukemia was over 25 µM; in the test on HCT-15 colon, over 25 µM; with HOP-62 NSCLC, over 25 µM; in the test on IGROV1 ovarian, over 25 µM; with OVCAR-4 ovarian it was over 23.1 µM; in the test on OVCAR-8 ovarian it was over 25 µM. The TGI in the test on PC-3 prostate, in the test on SK-MEL-28 melanoma and in the test with SK-MEL-5 melanoma was over 25 µM each time.
Regarding `Oc1ccc2ccccc2c1CCc1c(O)ccc2ccccc12`, the TGI amounted to 25.2 µM in the test on CCRF-CEM leukemia; 26.4 µM with EKVX NSCLC; 28 µM in the test with HCT-15 colon; 28.2 µM in the test on HOP-62 NSCLC; 27.6 µM in the test with OVCAR-8 ovarian; 26.9 µM in the test on PC-3 prostate. The TGI in the test on SK-MEL-28 melanoma was determined as 22.6 µM; in the test with SK-MEL-5 melanoma, 25.7 µM.
Regarding `CCN(C(=O)N1CCN(c2cc3c(cc2F)c(=O)c(C(=O)O)cn3C2CC2)CC1)c1nc(-c2ccccc2)cs1`, the GI50 was 3.35 µM with EKVX NSCLC; 2.9 µM in the test with HCT-15 colon; 2.82 µM with HOP-62 NSCLC; 3.12 µM with IGROV1 ovarian; 2.29 µM with OVCAR-4 ovarian; 3.33 µM in the test on OVCAR-8 ovarian. Moreover, the GI50 is 2.74 µM in the test on PC-3 prostate, 3 µM with SK-MEL-28 melanoma and 3.63 µM in the test with SK-MEL-5 melanoma. Further, the TGI in the test on EKVX NSCLC was over 100 µM; with HCT-15 colon it was over 100 µM; with HOP-62 NSCLC it was over 100 µM; in the test with IGROV1 ovarian, over 100 µM; with OVCAR-4 ovarian, 25.9 µM; in the test with OVCAR-8 ovarian, over 100 µM. Also, the TGI with PC-3 prostate is over 100 µM; in the test with SK-MEL-28 melanoma, over 100 µM; in the test on SK-MEL-5 melanoma it was 55.6 µM.
Turning to `N#CCc1c(F)c(F)c(F)c(F)c1F`, the TGI in the test on CCRF-CEM leukemia, in the test on EKVX NSCLC, in the test with HCT-15 colon, with HOP-62 NSCLC, with IGROV1 ovarian and in the test with OVCAR-8 ovarian was over 100 µM in each case. In addition, the TGI in the test on PC-3 prostate, with SK-MEL-28 melanoma and in the test on SK-MEL-5 melanoma was over 100 µM throughout.
Consider `OCC1NC(COC2OC(CO)C(O)C(O)C2O)C(O)C(O)C1O` (configuration not stated), for which the TGI with CCRF-CEM leukemia, in the test with HCT-15 colon, with IGROV1 ovarian, in the test with OVCAR-4 ovarian, in the test on OVCAR-8 ovarian and in the test on PC-3 prostate was over 100 µM in each case. The TGI with SK-MEL-28 melanoma and with SK-MEL-5 melanoma was over 100 µM in each case.
`Cc1c2cnccc2c(C)c2c1c1cc(O)ccc1n2C(C)C`: the GI50 in the test on CCRF-CEM leukemia was 1.33 µM; with EKVX NSCLC, 0.846 µM; with HCT-15 colon, 0.44 µM; in the test on HOP-62 NSCLC, 1.6 µM; with OVCAR-4 ovarian, 1.31 µM; with OVCAR-8 ovarian it was 0.972 µM. The GI50 in the test with PC-3 prostate is 1.12 µM; in the test on SK-MEL-28 melanoma it was 1.23 µM; with SK-MEL-5 melanoma it was 1.35 µM. Moreover, the TGI is 5.81 µM in the test on CCRF-CEM leukemia; 2.41 µM in the test on EKVX NSCLC; 4.2 µM with HCT-15 colon; 4.74 µM with HOP-62 NSCLC; 7.38 µM in the test on OVCAR-4 ovarian; 6.18 µM in the test with OVCAR-8 ovarian. Also, the TGI is 3.71 µM in the test on PC-3 prostate, 2.96 µM in the test with SK-MEL-28 melanoma and 3 µM in the test on SK-MEL-5 melanoma.
Turning to `Cc1cc(S(=O)(=O)/N=C(\N)Nc2cccc(O)c2)c(SCc2ccccc2)cc1Cl`, the GI50 in the test with EKVX NSCLC is 12.7 µM; in the test with HCT-15 colon, 18.6 µM; with HOP-62 NSCLC, 15.1 µM; in the test with IGROV1 ovarian it was 17.5 µM; with OVCAR-4 ovarian it was 12.1 µM; in the test on OVCAR-8 ovarian it was 24.3 µM. Further, the values for the GI50 in the test on PC-3 prostate, in the test with SK-MEL-28 melanoma and with SK-MEL-5 melanoma were 12.1 µM, 14.1 µM and 12.1 µM, respectively. For the same compound, the TGI in the test on EKVX NSCLC amounted to 37.2 µM; in the test on HCT-15 colon it was 48 µM; with HOP-62 NSCLC, 31.7 µM; with IGROV1 ovarian, 64.8 µM; in the test with OVCAR-4 ovarian it was 45.1 µM; in the test with OVCAR-8 ovarian, 87.1 µM. The TGI was over 100 µM in the test on PC-3 prostate, 31 µM in the test on SK-MEL-28 melanoma and 29.6 µM in the test with SK-MEL-5 melanoma.
Consider `OCC#CCOCC#Cc1ccccc1C#CCOCC#CCO`, for which the GI50 in the test with CCRF-CEM leukemia was 18.5 µM; in the test on EKVX NSCLC, 41.3 µM; with HCT-15 colon it was 20.9 µM; in the test on IGROV1 ovarian, over 100 µM; with OVCAR-8 ovarian, 43.8 µM; with PC-3 prostate, 22.5 µM. Also, the GI50 in the test with SK-MEL-5 melanoma is 39.8 µM. Further, the TGI in the test with CCRF-CEM leukemia is 57.1 µM; in the test on EKVX NSCLC, over 100 µM; with HCT-15 colon it was over 100 µM; in the test on IGROV1 ovarian, over 100 µM; in the test with OVCAR-8 ovarian it was over 100 µM; in the test on PC-3 prostate, over 100 µM. Also, the TGI with SK-MEL-5 melanoma was over 100 µM.
On to `Cc1cccc(C(C)(C)C)c1NC(=O)C(C#N)C1=C(Cl)C(=O)c2ccccc2C1=O` (configuration not stated), for which the TGI with CCRF-CEM leukemia came out at 10.7 µM; with EKVX NSCLC it was 17.1 µM; with HOP-62 NSCLC it was 32.2 µM; in the test with IGROV1 ovarian it was 33 µM; in the test with OVCAR-4 ovarian, 28.9 µM; in the test with OVCAR-8 ovarian, 37.4 µM. Moreover, the values for the TGI in the test with PC-3 prostate, in the test with SK-MEL-28 melanoma and with SK-MEL-5 melanoma were 26.3 µM, 31.5 µM and 31.5 µM, respectively.
As to `C[C@@H](O)[C@@H](C)Oc1nc(Nc2ccc(S(=N)(=O)C3CC3)cc2)ncc1C(F)(F)F` (some centres not stated), the GI50 in the test on CCRF-CEM leukemia was 0.0231 µM; with HCT-15 colon, 0.0329 µM; with HOP-62 NSCLC it was 0.0283 µM; in the test with IGROV1 ovarian, 0.0291 µM; with OVCAR-4 ovarian, 0.0442 µM; with PC-3 prostate it was 0.0401 µM. Further, the GI50 is 0.0294 µM in the test with SK-MEL-28 melanoma and 0.0266 µM in the test on SK-MEL-5 melanoma. Also, the TGI was 0.0621 µM with CCRF-CEM leukemia; over 46.8 µM in the test on HCT-15 colon; 16.4 µM with HOP-62 NSCLC; 25.2 µM in the test with IGROV1 ovarian; 26.9 µM in the test with OVCAR-4 ovarian; 0.443 µM in the test on PC-3 prostate. Further, the results for the TGI in the test on SK-MEL-28 melanoma and with SK-MEL-5 melanoma were 0.178 µM and 0.108 µM, respectively.
Take `Cc1cc2c(cc1Cl)SC(N(c1ccccc1Cl)S(=O)(=O)c1ccc(Br)s1)=NS2(=O)=O`: the GI50 with CCRF-CEM leukemia was 25.8 µM; in the test with EKVX NSCLC it was 21.9 µM; in the test with HCT-15 colon, 15.5 µM; in the test with HOP-62 NSCLC it was 37.5 µM; in the test on IGROV1 ovarian, 19.8 µM; in the test on OVCAR-4 ovarian, 18.1 µM. The GI50 with PC-3 prostate is 12.5 µM; in the test on SK-MEL-28 melanoma it was 15.2 µM; with SK-MEL-5 melanoma, 13.8 µM. Moreover, the TGI is 82.1 µM in the test with CCRF-CEM leukemia; 75.5 µM with EKVX NSCLC; 32.7 µM in the test on HCT-15 colon; over 100 µM with HOP-62 NSCLC; 89.8 µM with IGROV1 ovarian; 76.8 µM in the test on OVCAR-4 ovarian. Further, the TGI in the test on PC-3 prostate was 29.7 µM; in the test with SK-MEL-28 melanoma, 29.6 µM; in the test with SK-MEL-5 melanoma, 26.7 µM.
